Assay results reported in patent US9113629B2, “4-amino-6-(4-substituted-phenyl)-picolinates and 6-amino-2-(4-substituted-phenyl)-pyrimidine-4-carboxylates and their use as herbicides” (DOW AGROSCIENCES LLC, priority 2013, dated 2015).
Read-outs that look alike come from different tables or passages of the source.

Columns and labels:
[1] = system: Key Broadleaf Weed and Crop Species; experiment: Post-emergent Test II herbicidal activity (Table 5); format: in vivo; conditions: post-emergence, 336 h, 14 days after application; for pest or weed control at 70 g/ha: application rate 70 g ai/ha; for pest or weed control at 140 g/ha: application rate 140 g ai/ha
Method in brief: (§1)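 Compounds, dissolved in 97:3 acetone/DMSO and diluted into an aqueous carrier containing crop oil concentrate and Triton X-155, are applied over the top of young plants at 187 L/ha. Injury is scored visually at 14 d, 0% meaning no effect and 100% complete kill.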

[2] = system: Key Grass and Sedge Weeds as well as Grass Crops; experiment: Post-emergent Test II herbicidal activity (Table 6); format: in vivo; conditions: post-emergence, 336 h; for pest or weed control at 70 g/ha: 70 g ai/ha; for pest or weed control at 140 g/ha: 140 g ai/ha
Method in brief: as §1

[3] = ABUTH: velvetleaf (Abutilon theophrasti), read-out: Visual Growth Reduction (%) 14 Days After Application, ABUTH
[4] = AMARE: redroot pigweed (Amaranthus retroflexus), read-out: Visual Growth Reduction (%) 14 Days After Application, AMARE
[5] = BRSNN: oilseed-rape, canola (Brassica napus), read-out: Visual Growth Reduction (%) 14 Days After Application, BRSNN
[6] = CHEAL: lambsquarters (Chenopodium album), read-out: Visual Growth Reduction (%) 14 Days After Application, CHEAL
[7] = EPHHL: wild poinsettia (Euphorbia heterophylla), read-out: Visual Growth Reduction (%) 14 Days After Application, EPHHL
[8] = HELAN: sunflower (Helianthus annuus), read-out: Visual Growth Reduction (%) 14 Days After Application, HELAN
[9] = VIOTR: wild pansy (Viola tricolor), read-out: Visual Growth Reduction (%) 14 Days After Application, VIOTR
[10] = CYPES: yellow nutsedge (Cyperus esculentus), read-out: Visual Growth Reduction (%) 14 Days After Application, CYPES
[11] = DIGSA: crabgrass (Digitaria sanguinalis), read-out: Visual Growth Reduction (%) 14 Days After Application, DIGSA
[12] = ECHCG: barnyardgrass (Echinochloa crus-galli), read-out: Visual Growth Reduction (%) 14 Days After Application, ECHCG
[13] = ORYSA: rice (Oryza sativa), crop, read-out: Visual Growth Reduction (%) 14 Days After Application, ORYSA
[14] = SETFA: giant foxtail (Setaria faberi), read-out: Visual Growth Reduction (%) 14 Days After Application, SETFA
[15] = SORVU: grain sorghum (Sorghum vulgare), read-out: Visual Growth Reduction (%) 14 Days After Application, SORVU
[16] = TRZSS (wheat, Triticum aestivum), crop, read-out: Visual Growth Reduction (%) 14 Days After Application, TRZSS
[17] = ZEAMX: maize, corn (Zea mays), crop, read-out: Visual Growth Reduction (%) 14 Days After Application, ZEAMX

COC(=O)c1nc(-c2ccc(F)c(F)c2F)c(F)c(N)c1Cl [Compound 186]
95 to 100%: pest or weed control at 70 g/ha [1, 3] | pest or weed control at 140 g/ha [1, 3] | pest or weed control at 70 g/ha [1, 4] | pest or weed control at 140 g/ha [1, 4] | pest or weed control at 140 g/ha [1, 5] | pest or weed control at 70 g/ha [1, 6] | pest or weed control at 140 g/ha [1, 6] | pest or weed control at 70 g/ha [1, 7] | pest or weed control at 140 g/ha [1, 7] | pest or weed control at 140 g/ha [1, 8] | pest or weed control at 140 g/ha [1, 9] | pest or weed control at 140 g/ha [2, 12]
75 to 84%: pest or weed control at 140 g/ha [2, 15] | pest or weed control at 70 g/ha [2, 17]
147 to 148 °C: melting point
30 to 44%: pest or weed control at 140 g/ha [2, 13]
60 to 74%: pest or weed control at 140 g/ha [2, 11] | pest or weed control at 140 g/ha [2, 14] | pest or weed control at 70 g/ha [2, 15] | pest or weed control at 70 g/ha [2, 16] | pest or weed control at 140 g/ha [2, 16]
45 to 59%: pest or weed control at 70 g/ha [2, 11]
0 to 29%: pest or weed control at 70 g/ha [2, 13] | pest or weed control at 70 g/ha [2, 14]
85 to 94%: pest or weed control at 70 g/ha [1, 5] | pest or weed control at 70 g/ha [1, 8] | pest or weed control at 70 g/ha [1, 9] | pest or weed control at 70 g/ha [2, 10] | pest or weed control at 140 g/ha [2, 10] | pest or weed control at 70 g/ha [2, 12] | pest or weed control at 140 g/ha [2, 17]

COC(=O)c1ccc(-c2nc(C(=O)OC)c(Cl)c(N)c2F)cc1 [Compound 190, methyl 4-amino-3-chloro-5-fluoro-6-(4-(methoxycarbonyl)phenyl)picolinate]
0 to 29%: pest or weed control at 70 g/ha [1, 3] | pest or weed control at 140 g/ha [1, 3] | pest or weed control at 70 g/ha [1, 4] | pest or weed control at 70 g/ha [1, 5] | pest or weed control at 140 g/ha [1, 5] | pest or weed control at 70 g/ha [1, 7] | pest or weed control at 140 g/ha [1, 7] | pest or weed control at 70 g/ha [1, 8] | pest or weed control at 140 g/ha [1, 8] | pest or weed control at 70 g/ha [1, 9] | pest or weed control at 140 g/ha [1, 9] | pest or weed control at 70 g/ha [2, 10] | pest or weed control at 140 g/ha [2, 10] | pest or weed control at 70 g/ha [2, 11] | pest or weed control at 140 g/ha [2, 11] | pest or weed control at 70 g/ha [2, 12] | pest or weed control at 140 g/ha [2, 12] | pest or weed control at 70 g/ha [2, 13] | pest or weed control at 140 g/ha [2, 13] | pest or weed control at 70 g/ha [2, 14] | pest or weed control at 140 g/ha [2, 14] | pest or weed control at 70 g/ha [2, 15] | pest or weed control at 140 g/ha [2, 15] | pest or weed control at 70 g/ha [2, 16] | pest or weed control at 140 g/ha [2, 16] | pest or weed control at 70 g/ha [2, 17] | pest or weed control at 140 g/ha [2, 17]
60 to 74%: pest or weed control at 70 g/ha [1, 6]
163 to 165 °C: melting point
30 to 44%: pest or weed control at 140 g/ha [1, 4] | pest or weed control at 140 g/ha [1, 6]
